Experimental data taken from ChEMBL document CHEMBL1201862, “PubChem BioAssay data set” (2004).
The source made the active and inactive calls.

Tests used:
[1] = target: T1, Heat shock factor protein 1 (Mus musculus, UniProt P38532); experiment: inhibition of MG132-induced HSE-luciferase signal, confirmation, cell-based, NIH3T3, luminescence, dose retest (AID 2382); type: functional;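 also: NIH3T3 fibroblasts with HSF1-driven luciferase reporter stressed by proteasome inhibitor MG132; luminescence from HSF1-driven luciferase expression after 8 hours of MG132 stress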
T1 sequence (P38532 whole entry): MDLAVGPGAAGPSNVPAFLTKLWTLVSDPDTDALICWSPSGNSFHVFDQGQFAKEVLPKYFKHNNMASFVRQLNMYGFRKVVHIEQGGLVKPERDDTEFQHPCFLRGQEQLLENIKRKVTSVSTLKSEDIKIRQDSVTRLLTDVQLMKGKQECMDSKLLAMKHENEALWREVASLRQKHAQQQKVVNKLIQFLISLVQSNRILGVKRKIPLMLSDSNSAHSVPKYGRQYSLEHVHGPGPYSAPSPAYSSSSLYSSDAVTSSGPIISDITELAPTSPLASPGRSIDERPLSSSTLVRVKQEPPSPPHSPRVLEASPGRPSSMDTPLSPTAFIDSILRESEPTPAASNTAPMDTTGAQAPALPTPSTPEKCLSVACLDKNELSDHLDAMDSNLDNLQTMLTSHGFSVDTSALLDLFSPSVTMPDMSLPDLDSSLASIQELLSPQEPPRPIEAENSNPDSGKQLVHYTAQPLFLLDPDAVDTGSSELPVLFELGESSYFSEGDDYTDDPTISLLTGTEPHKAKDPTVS

Cytochrome P450 2D6 = Cytochrome P450 2D6 (Homo sapiens, UniProt P10635);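 also: CYP2D6 member of a cytochrome P450 panel assay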
[2] = HEp-2 cell cytotoxicity, dose response, cytotoxicity control for RSV inhibitor project, HTS (AID 2410); type: functional; conditions: human respiratory syncytial virus
[3] = target: T2, Corticotropin-releasing factor receptor 2/Corticotropin-releasing factor-binding protein (Homo sapiens, UniProt P24387+Q13324); experiment: Dose Response confirmation of uHTS hits for small molecule antagonists of the CRF-binding protein and CRF-R2 receptor complex.; type: functional; conditions: read-out: IC50_Mean
T2 sequence (Q13324 whole entry): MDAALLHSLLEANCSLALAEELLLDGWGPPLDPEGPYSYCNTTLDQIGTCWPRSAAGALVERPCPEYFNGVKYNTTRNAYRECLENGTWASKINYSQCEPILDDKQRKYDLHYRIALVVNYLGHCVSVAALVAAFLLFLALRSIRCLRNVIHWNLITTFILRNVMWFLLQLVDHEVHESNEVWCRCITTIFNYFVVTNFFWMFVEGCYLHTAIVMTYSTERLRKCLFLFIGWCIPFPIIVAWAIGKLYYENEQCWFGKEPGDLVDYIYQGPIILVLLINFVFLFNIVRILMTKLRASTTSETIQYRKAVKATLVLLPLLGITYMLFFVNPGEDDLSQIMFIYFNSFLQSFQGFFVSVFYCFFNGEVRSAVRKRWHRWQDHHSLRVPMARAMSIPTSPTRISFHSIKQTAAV
T2 sequence (P24387 whole entry): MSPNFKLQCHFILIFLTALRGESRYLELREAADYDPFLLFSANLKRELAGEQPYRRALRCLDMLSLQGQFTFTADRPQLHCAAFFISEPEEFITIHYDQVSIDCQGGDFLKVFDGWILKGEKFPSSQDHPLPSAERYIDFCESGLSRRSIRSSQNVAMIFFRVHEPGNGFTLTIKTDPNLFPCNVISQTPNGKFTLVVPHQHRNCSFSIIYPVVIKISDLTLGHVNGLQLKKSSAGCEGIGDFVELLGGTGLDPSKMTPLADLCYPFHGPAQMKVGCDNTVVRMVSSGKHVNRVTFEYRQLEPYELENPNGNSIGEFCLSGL

[4] = target: T2, Corticotropin-releasing factor receptor 2/Corticotropin-releasing factor-binding protein; experiment: activators of CRF receptor 2 with binding protein – uHTS hits, confirmation (AID 602473); type: functional; conditions: read-out: EC50_Mean
[5] = test system: Streptococcus sp. 'group A'; experiment: growth inhibition of control SK(-) GAS strain, dose response, counter-screen for streptokinase expression inhibitor project, luminescence, kanamycin, BacTiterGlo, confirmation (AID 1900); type: functional, organism-based
Streptokinase A = target: T3, Streptokinase A (Streptococcus pyogenes serotype M1, UniProt P10520); experiment: S. pyogenes streptokinase expression inhibitors, potency, dose response, plasminogen activation absorbance, OD405 (AID 1914); type: functional, Streptococcus pyogenes M1 GAS;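 also: secreted streptokinase activity via plasminogen activation per viability signal from cell pellet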
T3 sequence (P10520 whole entry): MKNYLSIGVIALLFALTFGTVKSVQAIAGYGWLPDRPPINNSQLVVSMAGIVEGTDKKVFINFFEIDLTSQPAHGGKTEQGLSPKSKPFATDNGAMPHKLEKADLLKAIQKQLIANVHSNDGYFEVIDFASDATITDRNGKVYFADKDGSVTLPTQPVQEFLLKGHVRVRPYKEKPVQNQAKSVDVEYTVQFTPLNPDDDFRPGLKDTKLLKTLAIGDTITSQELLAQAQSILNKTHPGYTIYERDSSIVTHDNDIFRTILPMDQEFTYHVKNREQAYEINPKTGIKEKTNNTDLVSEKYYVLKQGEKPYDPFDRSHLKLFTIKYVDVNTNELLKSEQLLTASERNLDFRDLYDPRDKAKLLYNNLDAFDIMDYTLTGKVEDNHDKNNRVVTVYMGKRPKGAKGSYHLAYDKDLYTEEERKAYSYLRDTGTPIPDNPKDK

Streptococcus = experiment: Group A Streptococcus viability loss, dose response, counter-screen for streptokinase expression inhibitor project, luminescence, BacTiterGlo (AID 1915); type: functional, organism-based;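 also: potency for reduction of bacterial viability or growth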
Cytochrome P450 3A4 = Cytochrome P450 3A4 (Homo sapiens, UniProt P08684);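 also: CYP3A4 tested as one member of a cytochrome P450 panel screen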
Cytochrome P450 2C19 = Cytochrome P450 2C19 (Homo sapiens, UniProt P33261); experiment: Cytochrome panel assay with activity outcomes. Panel member name: p450-cyp2c19 Compounds with AC50 equal or less than 10 uM are considered active; type: functional; conditions: read-out: AC50
Cytochrome P450 2C9 = Cytochrome P450 2C9 (Homo sapiens, UniProt P11712)
[6] = Shn3 3'UTR reporter inhibitors, dose response, cell-based, Clone20 osteoblasts, firefly luciferase, cherry-picked (AID 624132); type: functional;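 also: firefly luciferase luminescence from reporter carrying the Shn3 3'UTR in osteoblasts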

Chain of Cytochrome P450 2C19 (P33261 whole entry): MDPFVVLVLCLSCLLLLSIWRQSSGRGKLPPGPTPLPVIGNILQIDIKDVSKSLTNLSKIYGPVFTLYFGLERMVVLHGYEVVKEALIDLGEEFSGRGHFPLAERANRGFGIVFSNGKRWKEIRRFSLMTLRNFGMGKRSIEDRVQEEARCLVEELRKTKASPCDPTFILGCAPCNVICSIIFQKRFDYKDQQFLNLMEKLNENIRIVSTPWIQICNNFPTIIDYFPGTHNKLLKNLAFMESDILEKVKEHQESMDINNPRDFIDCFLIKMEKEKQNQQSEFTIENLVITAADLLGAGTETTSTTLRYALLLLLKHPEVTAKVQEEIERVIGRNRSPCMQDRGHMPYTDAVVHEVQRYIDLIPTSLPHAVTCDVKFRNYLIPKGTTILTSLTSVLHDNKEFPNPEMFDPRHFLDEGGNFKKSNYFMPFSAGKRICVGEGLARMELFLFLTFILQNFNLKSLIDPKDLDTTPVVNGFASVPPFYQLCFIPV
Chain of Cytochrome P450 3A4 (P08684 whole entry): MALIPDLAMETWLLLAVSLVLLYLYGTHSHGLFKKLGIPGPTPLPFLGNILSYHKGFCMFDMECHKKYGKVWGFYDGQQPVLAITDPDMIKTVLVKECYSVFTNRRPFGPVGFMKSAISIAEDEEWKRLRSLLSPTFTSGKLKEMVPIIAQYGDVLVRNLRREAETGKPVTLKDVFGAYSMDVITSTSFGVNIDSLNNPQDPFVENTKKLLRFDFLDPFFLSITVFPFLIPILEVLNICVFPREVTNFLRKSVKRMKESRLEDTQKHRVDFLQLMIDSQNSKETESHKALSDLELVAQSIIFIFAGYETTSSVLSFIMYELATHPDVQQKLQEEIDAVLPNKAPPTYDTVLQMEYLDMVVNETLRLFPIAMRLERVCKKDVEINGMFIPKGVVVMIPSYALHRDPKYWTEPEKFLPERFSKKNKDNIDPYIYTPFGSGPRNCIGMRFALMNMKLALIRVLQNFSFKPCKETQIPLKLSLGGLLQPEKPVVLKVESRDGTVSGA
Chain of Cytochrome P450 2D6 (P10635 whole entry): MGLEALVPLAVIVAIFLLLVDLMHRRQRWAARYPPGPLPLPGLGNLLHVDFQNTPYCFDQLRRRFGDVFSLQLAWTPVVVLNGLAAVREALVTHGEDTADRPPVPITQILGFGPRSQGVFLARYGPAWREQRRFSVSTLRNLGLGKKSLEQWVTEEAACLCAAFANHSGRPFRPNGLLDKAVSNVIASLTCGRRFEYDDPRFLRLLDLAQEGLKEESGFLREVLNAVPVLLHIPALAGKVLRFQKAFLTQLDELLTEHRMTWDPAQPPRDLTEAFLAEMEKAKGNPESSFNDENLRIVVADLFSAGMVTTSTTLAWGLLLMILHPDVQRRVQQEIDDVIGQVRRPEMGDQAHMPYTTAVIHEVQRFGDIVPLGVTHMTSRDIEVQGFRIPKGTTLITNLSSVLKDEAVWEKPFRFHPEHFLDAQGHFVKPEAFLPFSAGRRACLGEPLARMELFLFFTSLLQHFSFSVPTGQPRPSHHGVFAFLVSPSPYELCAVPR
Chain of Cytochrome P450 2C9 (P11712 whole entry): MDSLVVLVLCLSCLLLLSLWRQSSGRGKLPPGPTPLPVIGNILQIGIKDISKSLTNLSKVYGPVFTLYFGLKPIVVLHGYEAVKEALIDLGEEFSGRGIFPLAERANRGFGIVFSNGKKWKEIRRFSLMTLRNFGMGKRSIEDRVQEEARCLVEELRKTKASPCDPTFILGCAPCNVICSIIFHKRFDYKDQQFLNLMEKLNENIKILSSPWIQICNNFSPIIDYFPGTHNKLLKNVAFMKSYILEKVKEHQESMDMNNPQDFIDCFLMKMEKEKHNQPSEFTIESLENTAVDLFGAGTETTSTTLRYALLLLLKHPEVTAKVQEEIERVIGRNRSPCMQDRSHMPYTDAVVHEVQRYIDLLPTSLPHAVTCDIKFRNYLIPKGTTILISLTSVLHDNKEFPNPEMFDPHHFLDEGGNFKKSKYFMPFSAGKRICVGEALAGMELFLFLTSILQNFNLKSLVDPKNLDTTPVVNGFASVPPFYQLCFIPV

COc1ccccc1-c1nnc(SC2CCc3ccccc3NC2=O)s1 (stereo unspecified)
EC50 [1]: > 195 µM (not active)

COc1ccccc1C(=O)NCCn1cc(SCC(=O)Nc2nnc(C)s2)c2ccccc21
AC50 (Cytochrome P450 2D6): 28.2 µM (inconclusive)

CC(Oc1ccc(Cl)cc1Cl)C(=O)Nc1cccc(O)c1 (stereo unspecified)
CC50 [2]: 27.2 µM (active)

COc1ccc(N(C)C(=O)CN(C)S(=O)(=O)c2ccc3c(c2)c(=O)n(C)c(=O)n3C)c(OC)c1
EC50 [1]: 120 µM (active)

COc1ccc(NC(=O)c2nc3nccc(C)n3n2)cc1S(=O)(=O)N1CCOCC1
IC50 [3]: > 47.1 µM (inactive)
EC50 [4]: > 53 µM (inactive)

Cc1n[nH]c(-c2ccc(OCc3cnn(-c4ccccc4)c3)c(C)c2O)c1Oc1ccccc1
CC50 [2]: 14.6 µM (active)

CCOc1cc(N2CCOCC2)c(OCC)cc1NC(=O)C1=NN(c2cccc(C)c2)C(=O)CC1
EC50 [5]: 13.8 µM (active)
EC50 (Streptokinase A): > 150 µM (not active)
EC50 (Streptococcus): 123 µM (active)

O=C1N=C(Nc2cccc(O)c2)S/C1=C\c1cccc([N+](=O)[O-])c1
CC50 [2]: > 50 µM (active)

CCN(CC(=O)N1CCCC1)S(=O)(=O)c1ccc(F)cc1
EC50 [1]: > 195 µM (not active)

CC(=O)Nc1ccc(S(=O)(=O)NCc2csc(C)n2)cc1
EC50 [1]: > 195 µM (not active)

c1ccc2c(NCCN3CCOCC3)nc(-c3ccoc3)nc2c1
AC50 (Cytochrome P450 2D6): 25.1 µM (inconclusive)
AC50 (Cytochrome P450 3A4): 15.8 µM (inconclusive)

CCCCN1C(=O)C(CC(=O)NCC)S/C1=N/c1ccccc1 (stereo unspecified)
EC50 [1]: > 195 µM (not active)

N#C/C(=C\Nc1ccc2c[nH]nc2c1)c1nc(-c2ccccc2)cs1
EC50 [1]: > 195 µM (not active)

COc1ccc(S(=O)(=O)N(C)CC(=O)NC2CCCCC2)cc1OC
IC50 [3]: > 47.1 µM (inactive)
EC50 [4]: > 53 µM (inactive)

COc1ccc(S(=O)(=O)N2CCN(C(=O)CCCN3C(=O)NC4(CCCC4)C3=O)CC2)cc1
IC50 [3]: > 47.1 µM (inactive)
EC50 [4]: > 53 µM (inactive)

CCCC(c1cc(C(C)(C)C)c(O)cc1C)c1cc(C(C)(C)C)c(O)cc1C
AC50 (Cytochrome P450 2C19): 6.31 µM (inconclusive)
AC50 (Cytochrome P450 2D6): 3.98 µM (inconclusive)
AC50 (Cytochrome P450 2C9): 3.16 µM (inconclusive)

Cc1ccc2c(Cl)cc(Cl)c(OCC(=O)NC(C)(C)C)c2n1
EC50 [5]: 12.7 µM (active)
EC50 (Streptokinase A): > 150 µM (not active)
EC50 (Streptococcus): > 150 µM (not active)

CCN(CC)C(=O)C1CCCN(c2ccc([N+](=O)[O-])cc2[N+](=O)[O-])C1 (stereo unspecified)
AC50 [6]: 52.4 µM (active)

O=C(Oc1ccccc1)N1CCC2(CCCN(Cc3ccccc3)C2)CC1
AC50 (Cytochrome P450 2D6): 10 µM (inconclusive)
AC50 (Cytochrome P450 3A4): 12.6 µM (inconclusive)

COc1cccc(C(C(=O)Nc2ccc(F)cc2)N(C(=O)Cn2nnc3ccccc32)C2CC2)c1 (stereo unspecified)
AC50 (Cytochrome P450 2D6): 25.1 µM (inconclusive)

COc1ccc(CN(CCCN2CCOCC2)C(=O)Nc2cccc(Cl)c2)cc1OC
EC50 [1]: > 195 µM (not active)

Cc1[nH]c2ccccc2c1C(C[N+](=O)[O-])c1cccs1 (stereo unspecified)
EC50 [1]: > 195 µM (not active)

Cc1ccc(N2CC(C(=O)Nc3nc4ccc(S(C)(=O)=O)cc4s3)CC2=O)cc1 (stereo unspecified)
EC50 [1]: > 195 µM (not active)

COc1ccc(CC(=O)N/N=C(\C)c2ccc(Br)s2)cc1
IC50 [3]: > 47.1 µM (inactive)
EC50 [4]: > 53 µM (inactive)

COc1ccc2[nH]cc(CCNc3cc(-c4cccc(C#N)c4)ncn3)c2c1
AC50 (Cytochrome P450 2D6): 20 µM (inconclusive)

COC(=O)c1ccc(C(NC(=O)c2ccco2)[C@]2(C)C[C@H]2C2CCCCC2)cc1 (stereo partly specified)
AC50 (Cytochrome P450 2D6): 12.6 µM (inconclusive)

Cc1cccc(C)c1OCC(=O)NCc1ccccc1
EC50 [1]: > 195 µM (not active)

CCN(CC)S(=O)(=O)c1cccc(NC(=O)CCNC(=O)NC23CC4CC(CC(C4)C2)C3)c1
EC50 [1]: > 195 µM (not active)

CCOc1ccccc1N1CCN(C(=O)Cc2ccc(S(=O)(=O)N3CCOCC3)s2)CC1
IC50 [3]: > 47.1 µM (inactive)
EC50 [4]: > 53 µM (inactive)

Cc1ccc(C(=O)OCn2nnc3ccccc3c2=O)cc1[N+](=O)[O-]
IC50 [3]: > 47.1 µM (inactive)
EC50 [4]: > 53 µM (inactive)

CCC1(C)Cc2c(sc3nc(SC)nc(S)c23)CO1 (stereo unspecified)
EC50 [5]: 1.84 µM (active)
EC50 (Streptokinase A): > 150 µM (not active)
EC50 (Streptococcus): > 150 µM (not active)

CC(NC(=O)COC(=O)c1ccc2c(=O)n3c(nc2c1)CCCCC3)c1ccccc1 (stereo unspecified)
IC50 [3]: > 47.1 µM (inactive)
EC50 [4]: > 53 µM (inactive)

COc1ccc(CCNC(=O)CN(c2ccc(OC)c(OC)c2)S(C)(=O)=O)cc1OC
EC50 [1]: > 195 µM (not active)

CN1[C@@H]2CC[C@H]1C[C@@H](OC(=O)c1c[nH]c3ccccc13)C2 [TROPISETRON]
AC50 (Cytochrome P450 2D6): 31.6 µM (inconclusive)

Cc1ccc(C(=O)Nc2nc3ccccc3n3nnnc23)cc1
AC50 (Cytochrome P450 2C19): 14.1 µM (inconclusive)
AC50 (Cytochrome P450 2D6): 12.6 µM (inconclusive)
AC50 (Cytochrome P450 3A4): 10 µM (inconclusive)

CCOC(=O)C1CCCN(C(=O)COC(=O)c2cccs2)C1 (stereo unspecified)
IC50 [3]: > 47.1 µM (inactive)
EC50 [4]: > 53 µM (inactive)

CCn1c(SCC(=O)NC2CCCCC2)nc2c(c1=O)SC(C)C2 (stereo unspecified)
AC50 (Cytochrome P450 2D6): 1.58 µM (inconclusive)

Cc1ccnn2cc3c(=O)n(C)c(=O)n(C)c3c12
AC50 (Cytochrome P450 2D6): 20 µM (inconclusive)
AC50 (Cytochrome P450 2C9): 11.2 µM (inconclusive)

CC(N1CCOC1=O)S(=O)(=O)c1ccccc1 (stereo unspecified)
EC50 [1]: > 195 µM (not active)

CC(=O)Nc1ccc(NC(=O)COc2ccc([N+](=O)[O-])cc2)cc1
IC50 [3]: > 47.1 µM (inactive)
EC50 [4]: > 53 µM (inactive)

O=C(NC1(C(F)(F)F)C(=O)Nc2c1c(=O)[nH]c(=O)n2Cc1ccccc1)c1ccc(Cl)cc1 (stereo unspecified)
IC50 [3]: > 47.1 µM (inactive)
EC50 [4]: > 53 µM (inactive)

CCOC(=O)Nc1ccccc1C(=O)Nc1cc(C)cc(C)c1
EC50 [1]: > 195 µM (not active)

CC1CN(S(=O)(=O)c2ccc(C(=O)N3CCc4ccccc43)cc2)CC(C)O1 (stereo unspecified)
IC50 [3]: > 47.1 µM (inactive)
EC50 [4]: > 53 µM (inactive)

CS(=O)(=O)Nc1cccc(-c2ccc3ncnc(Nc4ccc(F)cc4)c3c2)c1
AC50 (Cytochrome P450 2D6): 39.8 µM (inconclusive)

CCOc1ccc(C(=O)NC(=S)Nc2ccc(NC(=O)CC)cc2)cc1[N+](=O)[O-]
EC50 [5]: 4.28 µM (active)
EC50 (Streptokinase A): > 150 µM (not active)
EC50 (Streptococcus): 64.4 µM (active)

CC1CN(C2CCN(C(=O)c3cccc(Cl)c3)CC2)CC(C)O1 (stereo unspecified)
AC50 (Cytochrome P450 2C19): 5.62 µM (inconclusive)
AC50 (Cytochrome P450 2D6): 0.891 µM (inconclusive)

OCCNc1nc(SCc2ccccc2)nc2sc3c(c12)CCC3
AC50 (Cytochrome P450 2D6): 25.1 µM (inconclusive)

CC(C)(C)NC(=O)/C(=C/c1ccccc1F)NC(=O)c1ccc([N+](=O)[O-])cc1
IC50 [3]: > 47.1 µM (inactive)
EC50 [4]: > 53 µM (inactive)
